# Source: PubChem BioAssay (NCI)
#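 Results reflect a 48-hour exposure of cells in 96-well plates to compound at five concentrations. Abbreviation: GI50, concentration required for 50% inhibition of growth. TGI: total growth inhibition.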
# How the values were obtained:
# Experiment in all cases: DTP human tumour cell line panel, 48 h
# 786-0 renal = tested on: 786-0 renal
# A498 renal = tested on: A498 renal
# A549 NSCLC = tested on: A549 NSCLC
# ACHN renal = tested on: ACHN renal
# BT-549 breast = tested on: BT-549 breast
# CAKI-1 renal = tested on: CAKI-1 renal
# CCRF-CEM leukemia = tested on: CCRF-CEM leukemia
# COLO 205 colon = tested on: COLO 205 colon
# DU-145 prostate = tested on: DU-145 prostate
# HCC-2998 colon = tested on: HCC-2998 colon
# HCT-116 colon = tested on: HCT-116 colon
# HCT-15 colon = tested on: HCT-15 colon
# HL-60(TB) leukemia = tested on: HL-60(TB) leukemia
# HOP-62 NSCLC = tested on: HOP-62 NSCLC
# HS 578T breast = tested on: HS 578T breast
# HT29 colon = tested on: HT29 colon
# IGROV1 ovarian = tested on: IGROV1 ovarian
# K-562 leukemia = tested on: K-562 leukemia
# KM12 colon = tested on: KM12 colon
# LOX IMVI melanoma = tested on: LOX IMVI melanoma
# M14 melanoma = tested on: M14 melanoma
# MCF7 breast = tested on: MCF7 breast
# MDA-MB-231 breast = tested on: MDA-MB-231 breast
# MDA-MB-435 = tested on: MDA-MB-435
# MOLT-4 leukemia = tested on: MOLT-4 leukemia
# NCI-H226 lung = tested on: NCI-H226 lung
# NCI-H460 lung = tested on: NCI-H460 lung
# NCI-H522 lung = tested on: NCI-H522 lung
# NCI/ADR-RES ovarian = tested on: NCI/ADR-RES ovarian
# OVCAR-3 ovarian = tested on: OVCAR-3 ovarian
# OVCAR-4 ovarian = tested on: OVCAR-4 ovarian
# OVCAR-5 ovarian = tested on: OVCAR-5 ovarian
# OVCAR-8 ovarian = tested on: OVCAR-8 ovarian
# PC-3 prostate = tested on: PC-3 prostate
# RPMI-8226 leukemia = tested on: RPMI-8226 leukemia
# RXF 393 renal = tested on: RXF 393 renal
# SF-268 CNS = tested on: SF-268 CNS
# SF-295 CNS = tested on: SF-295 CNS
# SF-539 CNS = tested on: SF-539 CNS
# SK-MEL-2 melanoma = tested on: SK-MEL-2 melanoma
# SK-MEL-28 melanoma = tested on: SK-MEL-28 melanoma
# SK-MEL-5 melanoma = tested on: SK-MEL-5 melanoma
# SK-OV-3 ovarian = tested on: SK-OV-3 ovarian
# SN12C renal = tested on: SN12C renal
# SNB-19 CNS = tested on: SNB-19 CNS
# SNB-75 CNS = tested on: SNB-75 CNS
# SR leukemia = tested on: SR leukemia
# SW-620 colon = tested on: SW-620 colon
# U251 CNS = tested on: U251 CNS
# UACC-257 melanoma = tested on: UACC-257 melanoma
# UACC-62 melanoma = tested on: UACC-62 melanoma
# UO-31 renal = tested on: UO-31 renal
# EKVX NSCLC = tested on: EKVX NSCLC
# HOP-92 NSCLC = tested on: HOP-92 NSCLC
# MALME-3M melanoma = tested on: MALME-3M melanoma
# NCI-H23 lung = tested on: NCI-H23 lung
# T-47D breast = tested on: T-47D breast
# TK-10 renal = tested on: TK-10 renal
compound,measurement,setting,value
COc1ccc(-c2cc(=O)n(-c3nc4ccccc4[nH]3)[nH]2)cc1OC,GI50,786-0 renal,12.4 µM
same,TGI,786-0 renal,> 100 µM
same,GI50,A498 renal,2.33 µM
same,TGI,A498 renal,8.72 µM
same,GI50,A549 NSCLC,4.72 µM
same,TGI,A549 NSCLC,81.9 µM
same,GI50,ACHN renal,5.72 µM
same,TGI,ACHN renal,> 100 µM
same,GI50,BT-549 breast,23.7 µM
same,TGI,BT-549 breast,> 100 µM
same,GI50,CAKI-1 renal,4.79 µM
same,TGI,CAKI-1 renal,> 100 µM
same,GI50,CCRF-CEM leukemia,2.66 µM
same,TGI,CCRF-CEM leukemia,38.1 µM
same,GI50,COLO 205 colon,35.8 µM
same,TGI,COLO 205 colon,> 100 µM
same,GI50,DU-145 prostate,17.5 µM
same,TGI,DU-145 prostate,> 100 µM
same,GI50,HCC-2998 colon,16.1 µM
same,TGI,HCC-2998 colon,> 100 µM
same,GI50,HCT-116 colon,5.83 µM
same,TGI,HCT-116 colon,> 100 µM
same,GI50,HCT-15 colon,3.7 µM
same,TGI,HCT-15 colon,> 100 µM
same,GI50,HL-60(TB) leukemia,3.59 µM
same,TGI,HL-60(TB) leukemia,19.6 µM
same,GI50,HOP-62 NSCLC,9.36 µM
same,TGI,HOP-62 NSCLC,> 100 µM
same,GI50,HS 578T breast,4 µM
same,TGI,HS 578T breast,66.6 µM
same,GI50,HT29 colon,30.5 µM
same,TGI,HT29 colon,> 100 µM
same,GI50,IGROV1 ovarian,6.08 µM
same,TGI,IGROV1 ovarian,76.2 µM
same,GI50,K-562 leukemia,3.73 µM
same,TGI,K-562 leukemia,25.7 µM
same,GI50,KM12 colon,8.56 µM
same,TGI,KM12 colon,> 100 µM
same,GI50,LOX IMVI melanoma,6.73 µM
same,TGI,LOX IMVI melanoma,> 100 µM
same,GI50,M14 melanoma,6.74 µM
same,TGI,M14 melanoma,> 100 µM
same,GI50,MCF7 breast,4.74 µM
same,TGI,MCF7 breast,> 100 µM
same,GI50,MDA-MB-231 breast,19.5 µM
same,TGI,MDA-MB-231 breast,> 100 µM
same,GI50,MDA-MB-435,3.87 µM
same,TGI,MDA-MB-435,> 100 µM
same,GI50,MOLT-4 leukemia,0.261 µM
same,TGI,MOLT-4 leukemia,0.648 µM
same,GI50,NCI-H226 lung,15 µM
same,TGI,NCI-H226 lung,67.1 µM
same,GI50,NCI-H460 lung,3.91 µM
same,TGI,NCI-H460 lung,68.3 µM
same,GI50,NCI-H522 lung,2.96 µM
same,TGI,NCI-H522 lung,9.14 µM
same,GI50,NCI/ADR-RES ovarian,3.57 µM
same,TGI,NCI/ADR-RES ovarian,33.3 µM
same,GI50,OVCAR-3 ovarian,12.9 µM
same,TGI,OVCAR-3 ovarian,> 100 µM
same,GI50,OVCAR-4 ovarian,7.9 µM
same,TGI,OVCAR-4 ovarian,> 100 µM
same,GI50,OVCAR-5 ovarian,28.2 µM
same,TGI,OVCAR-5 ovarian,> 100 µM
same,GI50,OVCAR-8 ovarian,4.43 µM
same,TGI,OVCAR-8 ovarian,63.5 µM
same,GI50,PC-3 prostate,3.8 µM
same,TGI,PC-3 prostate,> 100 µM
same,GI50,RPMI-8226 leukemia,4.61 µM
same,TGI,RPMI-8226 leukemia,41.3 µM
same,GI50,RXF 393 renal,1.24 µM
same,TGI,RXF 393 renal,11.9 µM
same,GI50,SF-268 CNS,10.2 µM
same,TGI,SF-268 CNS,> 100 µM
same,GI50,SF-295 CNS,1.3 µM
same,TGI,SF-295 CNS,4.82 µM
same,GI50,SF-539 CNS,6.36 µM
same,TGI,SF-539 CNS,48.9 µM
same,GI50,SK-MEL-2 melanoma,4.77 µM
same,TGI,SK-MEL-2 melanoma,23.6 µM
same,GI50,SK-MEL-28 melanoma,13.9 µM
same,TGI,SK-MEL-28 melanoma,> 100 µM
same,GI50,SK-MEL-5 melanoma,4.08 µM
same,TGI,SK-MEL-5 melanoma,34.9 µM
same,GI50,SK-OV-3 ovarian,35.3 µM
same,TGI,SK-OV-3 ovarian,> 100 µM
same,GI50,SN12C renal,8.85 µM
same,TGI,SN12C renal,> 100 µM
same,GI50,SNB-19 CNS,7.06 µM
same,TGI,SNB-19 CNS,> 100 µM
same,GI50,SNB-75 CNS,4.99 µM
same,TGI,SNB-75 CNS,81.1 µM
same,GI50,SR leukemia,3.85 µM
same,TGI,SR leukemia,> 100 µM
same,GI50,SW-620 colon,3.41 µM
same,TGI,SW-620 colon,> 100 µM
same,GI50,U251 CNS,4.2 µM
same,TGI,U251 CNS,> 100 µM
same,GI50,UACC-257 melanoma,6.4 µM
same,TGI,UACC-257 melanoma,61 µM
same,GI50,UACC-62 melanoma,3.79 µM
same,TGI,UACC-62 melanoma,24.1 µM
same,GI50,UO-31 renal,3.2 µM
same,TGI,UO-31 renal,18.6 µM
Oc1c(C(Nc2ccccc2Br)c2ccccc2)ccc2cccnc12 (configuration not stated),GI50,786-0 renal,2.22 µM
same,TGI,786-0 renal,6.41 µM
same,GI50,A498 renal,2.04 µM
same,TGI,A498 renal,25.6 µM
same,GI50,A549 NSCLC,2.46 µM
same,TGI,A549 NSCLC,> 100 µM
same,GI50,ACHN renal,2.04 µM
same,TGI,ACHN renal,> 100 µM
same,GI50,CAKI-1 renal,1.36 µM
same,TGI,CAKI-1 renal,54.3 µM
same,GI50,COLO 205 colon,2.75 µM
same,TGI,COLO 205 colon,36.6 µM
same,GI50,DU-145 prostate,4.81 µM
same,TGI,DU-145 prostate,> 100 µM
same,GI50,EKVX NSCLC,2.48 µM
same,TGI,EKVX NSCLC,> 100 µM
same,GI50,HCC-2998 colon,2.19 µM
same,TGI,HCC-2998 colon,97.9 µM
same,GI50,HCT-116 colon,3.13 µM
same,TGI,HCT-116 colon,18 µM
same,GI50,HCT-15 colon,0.672 µM
same,TGI,HCT-15 colon,27.3 µM
same,GI50,HL-60(TB) leukemia,2.34 µM
same,TGI,HL-60(TB) leukemia,6.25 µM
same,GI50,HOP-62 NSCLC,2.28 µM
same,TGI,HOP-62 NSCLC,19.7 µM
same,GI50,HOP-92 NSCLC,6.51 µM
same,TGI,HOP-92 NSCLC,75.9 µM
same,GI50,HS 578T breast,10.7 µM
same,TGI,HS 578T breast,> 100 µM
same,GI50,HT29 colon,3.85 µM
same,TGI,HT29 colon,84.3 µM
same,GI50,IGROV1 ovarian,3.47 µM
same,TGI,IGROV1 ovarian,22.9 µM
same,GI50,K-562 leukemia,2.3 µM
same,TGI,K-562 leukemia,> 100 µM
same,GI50,KM12 colon,2.47 µM
same,TGI,KM12 colon,> 100 µM
same,GI50,LOX IMVI melanoma,1.91 µM
same,TGI,LOX IMVI melanoma,13.6 µM
same,GI50,M14 melanoma,2.3 µM
same,TGI,M14 melanoma,8.47 µM
same,GI50,MALME-3M melanoma,4.42 µM
same,TGI,MALME-3M melanoma,29.2 µM
same,GI50,MCF7 breast,1.56 µM
same,TGI,MCF7 breast,65.1 µM
same,GI50,MDA-MB-231 breast,3.9 µM
same,TGI,MDA-MB-231 breast,58.9 µM
same,GI50,MDA-MB-435,4 µM
same,TGI,MDA-MB-435,70.2 µM
same,GI50,MOLT-4 leukemia,1.68 µM
same,TGI,MOLT-4 leukemia,7.56 µM
same,GI50,NCI-H23 lung,3.96 µM
same,TGI,NCI-H23 lung,26.9 µM
same,GI50,NCI-H460 lung,0.722 µM
same,TGI,NCI-H460 lung,11.7 µM
same,GI50,NCI-H522 lung,2.39 µM
same,TGI,NCI-H522 lung,16.6 µM
same,GI50,NCI/ADR-RES ovarian,1.44 µM
same,TGI,NCI/ADR-RES ovarian,24.5 µM
same,GI50,OVCAR-3 ovarian,5.37 µM
same,TGI,OVCAR-3 ovarian,23.9 µM
same,GI50,OVCAR-4 ovarian,1.3 µM
same,TGI,OVCAR-4 ovarian,55 µM
same,GI50,OVCAR-5 ovarian,5.34 µM
same,TGI,OVCAR-5 ovarian,51.7 µM
same,GI50,OVCAR-8 ovarian,2.11 µM
same,TGI,OVCAR-8 ovarian,> 100 µM
same,GI50,PC-3 prostate,3.92 µM
same,TGI,PC-3 prostate,> 100 µM
same,GI50,RPMI-8226 leukemia,6.28 µM
same,TGI,RPMI-8226 leukemia,> 100 µM
same,GI50,RXF 393 renal,1.97 µM
same,TGI,RXF 393 renal,20.9 µM
same,GI50,SF-268 CNS,1.7 µM
same,TGI,SF-268 CNS,17.3 µM
same,GI50,SF-295 CNS,1.65 µM
same,TGI,SF-295 CNS,47.3 µM
same,GI50,SF-539 CNS,3.65 µM
same,TGI,SF-539 CNS,13.5 µM
same,GI50,SK-MEL-28 melanoma,2.46 µM
same,TGI,SK-MEL-28 melanoma,14.9 µM
same,GI50,SK-MEL-5 melanoma,1.72 µM
same,TGI,SK-MEL-5 melanoma,7.38 µM
same,GI50,SK-OV-3 ovarian,3.24 µM
same,TGI,SK-OV-3 ovarian,78.5 µM
same,GI50,SN12C renal,2.68 µM
same,TGI,SN12C renal,35.1 µM
same,GI50,SNB-19 CNS,2.33 µM
same,TGI,SNB-19 CNS,> 100 µM
same,GI50,SNB-75 CNS,2.82 µM
same,TGI,SNB-75 CNS,48.6 µM
same,GI50,SR leukemia,0.715 µM
same,TGI,SR leukemia,> 100 µM
same,GI50,SW-620 colon,2.63 µM
same,TGI,SW-620 colon,25.3 µM
same,GI50,T-47D breast,3.77 µM
same,TGI,T-47D breast,73.1 µM
same,GI50,TK-10 renal,3.34 µM
same,TGI,TK-10 renal,46.3 µM
same,GI50,U251 CNS,0.674 µM
same,TGI,U251 CNS,13.4 µM
same,GI50,UACC-257 melanoma,1.88 µM
same,TGI,UACC-257 melanoma,8.48 µM
same,GI50,UACC-62 melanoma,1.39 µM
same,TGI,UACC-62 melanoma,7.33 µM
same,GI50,UO-31 renal,1.32 µM
same,TGI,UO-31 renal,45.8 µM
